Drawing on ChEMBL document CHEMBL5385908, “Screening Ultra-Large Encoded Compound Libraries Leads to Novel Protein-Ligand Interactions and High Selectivity” (J Med Chem, 2024), this text covers IC50 for 9 molecules.

In assay [1] the target is T1, ATPase family AAA domain-containing protein 2 (Homo sapiens, UniProt Q6PL18).
T1 sequence (Q6PL18 whole entry): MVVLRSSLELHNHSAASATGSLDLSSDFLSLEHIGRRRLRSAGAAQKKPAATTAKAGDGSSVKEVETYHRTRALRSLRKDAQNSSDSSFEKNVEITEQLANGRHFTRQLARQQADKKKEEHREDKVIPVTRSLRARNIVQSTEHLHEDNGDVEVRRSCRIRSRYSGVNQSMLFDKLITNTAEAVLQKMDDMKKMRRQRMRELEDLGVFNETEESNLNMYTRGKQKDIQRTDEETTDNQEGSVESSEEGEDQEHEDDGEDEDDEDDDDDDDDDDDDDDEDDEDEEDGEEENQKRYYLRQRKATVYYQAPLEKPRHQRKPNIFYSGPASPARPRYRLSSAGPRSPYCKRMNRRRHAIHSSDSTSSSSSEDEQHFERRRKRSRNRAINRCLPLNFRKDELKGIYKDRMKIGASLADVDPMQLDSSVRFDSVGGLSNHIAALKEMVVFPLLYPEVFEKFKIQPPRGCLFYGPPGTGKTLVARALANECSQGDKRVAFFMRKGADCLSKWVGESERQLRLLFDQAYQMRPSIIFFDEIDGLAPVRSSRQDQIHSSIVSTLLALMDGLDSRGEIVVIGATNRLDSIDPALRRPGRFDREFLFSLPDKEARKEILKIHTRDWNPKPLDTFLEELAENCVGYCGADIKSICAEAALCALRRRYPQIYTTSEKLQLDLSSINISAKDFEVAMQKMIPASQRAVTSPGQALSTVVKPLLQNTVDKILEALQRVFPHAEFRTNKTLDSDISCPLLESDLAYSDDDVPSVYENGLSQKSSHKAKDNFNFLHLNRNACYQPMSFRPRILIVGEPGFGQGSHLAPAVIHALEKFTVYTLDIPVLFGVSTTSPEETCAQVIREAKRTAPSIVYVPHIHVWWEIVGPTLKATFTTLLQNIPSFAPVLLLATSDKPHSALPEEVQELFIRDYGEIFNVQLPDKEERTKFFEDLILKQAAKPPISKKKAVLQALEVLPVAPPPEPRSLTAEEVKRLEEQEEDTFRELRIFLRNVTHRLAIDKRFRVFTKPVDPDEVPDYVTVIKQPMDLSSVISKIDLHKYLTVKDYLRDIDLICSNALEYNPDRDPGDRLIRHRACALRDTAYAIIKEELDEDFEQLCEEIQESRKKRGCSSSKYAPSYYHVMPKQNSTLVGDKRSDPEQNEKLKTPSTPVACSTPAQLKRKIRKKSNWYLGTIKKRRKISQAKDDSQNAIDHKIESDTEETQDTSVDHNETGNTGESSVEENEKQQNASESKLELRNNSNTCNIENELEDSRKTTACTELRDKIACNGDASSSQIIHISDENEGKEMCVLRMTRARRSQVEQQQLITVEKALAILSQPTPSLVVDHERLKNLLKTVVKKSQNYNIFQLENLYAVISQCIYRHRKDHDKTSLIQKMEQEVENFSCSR
The experiment in a line: Inhibition of N-terminal Hexahistidine-GST-tagged human ATAD2 bromodomain expressed in Escherichia coli BL21 (DE3) Rosetta cells incubated for 1 hr by FRET analysis.

The target in assay [2] is T2, Tyrosine-protein kinase receptor UFO (Homo sapiens, UniProt P30530).
T2 sequence (P30530 whole entry): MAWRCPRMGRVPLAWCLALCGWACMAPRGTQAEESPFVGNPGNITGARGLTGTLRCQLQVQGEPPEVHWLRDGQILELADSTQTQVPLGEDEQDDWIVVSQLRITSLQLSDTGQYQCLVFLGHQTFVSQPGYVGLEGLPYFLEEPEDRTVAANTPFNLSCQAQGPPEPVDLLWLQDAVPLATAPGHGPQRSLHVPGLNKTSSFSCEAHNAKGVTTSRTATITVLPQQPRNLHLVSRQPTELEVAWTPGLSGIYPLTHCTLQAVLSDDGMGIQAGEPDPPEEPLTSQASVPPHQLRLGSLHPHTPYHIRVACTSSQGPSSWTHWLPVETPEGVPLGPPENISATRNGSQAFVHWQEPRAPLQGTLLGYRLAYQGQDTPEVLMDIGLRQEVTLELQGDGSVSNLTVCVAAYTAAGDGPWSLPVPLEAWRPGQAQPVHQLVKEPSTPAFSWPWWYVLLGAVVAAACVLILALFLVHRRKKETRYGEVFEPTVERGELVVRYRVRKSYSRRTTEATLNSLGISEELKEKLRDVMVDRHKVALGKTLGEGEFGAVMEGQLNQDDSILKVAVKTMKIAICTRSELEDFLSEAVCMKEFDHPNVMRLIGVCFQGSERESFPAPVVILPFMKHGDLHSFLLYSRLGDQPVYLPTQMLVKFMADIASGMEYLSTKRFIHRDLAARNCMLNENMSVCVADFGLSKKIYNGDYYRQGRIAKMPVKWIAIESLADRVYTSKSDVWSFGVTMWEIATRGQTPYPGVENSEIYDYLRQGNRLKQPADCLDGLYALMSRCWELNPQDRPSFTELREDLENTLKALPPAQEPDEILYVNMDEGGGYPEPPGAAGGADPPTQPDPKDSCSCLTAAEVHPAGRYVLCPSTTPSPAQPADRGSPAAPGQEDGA
The experiment in a line: Inhibition of AXL (unknown origin) by FRET assay.

Assay [3] has as its target T3, Tyrosine-protein kinase Mer (Homo sapiens, UniProt Q12866).
T3 sequence (Q12866 whole entry): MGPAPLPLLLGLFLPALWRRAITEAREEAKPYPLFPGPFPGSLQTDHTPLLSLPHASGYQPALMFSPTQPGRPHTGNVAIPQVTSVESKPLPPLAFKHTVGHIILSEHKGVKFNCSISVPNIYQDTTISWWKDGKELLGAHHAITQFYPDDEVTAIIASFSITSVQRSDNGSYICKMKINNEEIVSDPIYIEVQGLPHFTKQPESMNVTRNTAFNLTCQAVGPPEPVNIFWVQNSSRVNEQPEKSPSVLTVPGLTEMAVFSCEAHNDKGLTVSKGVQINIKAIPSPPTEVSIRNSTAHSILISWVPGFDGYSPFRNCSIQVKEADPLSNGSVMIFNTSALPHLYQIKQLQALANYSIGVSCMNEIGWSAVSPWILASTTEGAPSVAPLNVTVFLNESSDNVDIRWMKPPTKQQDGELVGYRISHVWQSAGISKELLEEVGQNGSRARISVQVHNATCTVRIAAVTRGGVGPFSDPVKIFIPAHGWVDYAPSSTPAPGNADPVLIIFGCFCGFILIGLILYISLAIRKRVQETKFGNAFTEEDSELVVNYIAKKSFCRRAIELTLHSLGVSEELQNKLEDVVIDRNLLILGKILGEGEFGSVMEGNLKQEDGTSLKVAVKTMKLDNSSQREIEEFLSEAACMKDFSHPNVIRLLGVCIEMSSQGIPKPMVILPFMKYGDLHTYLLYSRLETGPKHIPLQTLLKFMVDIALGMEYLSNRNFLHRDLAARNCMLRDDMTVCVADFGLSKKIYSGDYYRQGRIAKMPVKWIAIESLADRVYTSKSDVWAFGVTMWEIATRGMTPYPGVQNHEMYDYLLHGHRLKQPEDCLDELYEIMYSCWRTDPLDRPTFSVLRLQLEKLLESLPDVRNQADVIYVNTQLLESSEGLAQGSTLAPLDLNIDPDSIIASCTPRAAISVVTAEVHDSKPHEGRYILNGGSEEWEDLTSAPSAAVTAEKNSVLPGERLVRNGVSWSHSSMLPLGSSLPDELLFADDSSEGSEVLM
The experiment in a line: Inhibition of N-terminal His6-tagged human MerTk.

Assay [4] concerns the target T4, Receptor-type tyrosine-protein kinase FLT3 (Homo sapiens, UniProt P36888).
T4 sequence (P36888 whole entry): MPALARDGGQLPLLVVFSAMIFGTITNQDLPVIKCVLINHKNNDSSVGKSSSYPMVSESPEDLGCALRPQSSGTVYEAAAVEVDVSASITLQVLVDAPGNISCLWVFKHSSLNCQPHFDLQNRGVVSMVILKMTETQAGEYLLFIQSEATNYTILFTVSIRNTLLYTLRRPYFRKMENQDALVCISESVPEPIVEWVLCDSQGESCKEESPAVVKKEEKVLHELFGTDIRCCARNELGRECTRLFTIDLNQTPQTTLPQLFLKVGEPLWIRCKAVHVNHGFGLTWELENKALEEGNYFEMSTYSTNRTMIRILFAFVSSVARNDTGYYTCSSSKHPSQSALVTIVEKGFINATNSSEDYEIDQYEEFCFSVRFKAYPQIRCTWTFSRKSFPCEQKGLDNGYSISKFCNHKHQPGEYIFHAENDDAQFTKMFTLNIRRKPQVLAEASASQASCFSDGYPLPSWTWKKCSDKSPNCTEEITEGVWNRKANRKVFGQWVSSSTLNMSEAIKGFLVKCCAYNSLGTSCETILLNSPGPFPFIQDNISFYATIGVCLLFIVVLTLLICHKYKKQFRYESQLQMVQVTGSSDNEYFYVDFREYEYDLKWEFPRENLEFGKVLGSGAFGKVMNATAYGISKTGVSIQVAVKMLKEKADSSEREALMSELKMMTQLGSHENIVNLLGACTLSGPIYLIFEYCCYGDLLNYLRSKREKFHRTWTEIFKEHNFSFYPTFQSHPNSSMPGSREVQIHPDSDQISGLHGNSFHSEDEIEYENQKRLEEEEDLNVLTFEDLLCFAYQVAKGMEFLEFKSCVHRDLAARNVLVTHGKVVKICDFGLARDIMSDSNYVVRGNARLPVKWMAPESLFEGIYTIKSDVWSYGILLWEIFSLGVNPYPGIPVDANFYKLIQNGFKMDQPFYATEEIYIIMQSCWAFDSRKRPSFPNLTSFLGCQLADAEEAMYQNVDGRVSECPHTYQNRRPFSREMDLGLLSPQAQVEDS
The experiment in a line: Inhibition of wild type FLT3 (unknown origin).

The target of assay [5] is T5, Proteinase-activated receptor 2 (Homo sapiens, UniProt P55085).
T5 sequence (P55085 whole entry): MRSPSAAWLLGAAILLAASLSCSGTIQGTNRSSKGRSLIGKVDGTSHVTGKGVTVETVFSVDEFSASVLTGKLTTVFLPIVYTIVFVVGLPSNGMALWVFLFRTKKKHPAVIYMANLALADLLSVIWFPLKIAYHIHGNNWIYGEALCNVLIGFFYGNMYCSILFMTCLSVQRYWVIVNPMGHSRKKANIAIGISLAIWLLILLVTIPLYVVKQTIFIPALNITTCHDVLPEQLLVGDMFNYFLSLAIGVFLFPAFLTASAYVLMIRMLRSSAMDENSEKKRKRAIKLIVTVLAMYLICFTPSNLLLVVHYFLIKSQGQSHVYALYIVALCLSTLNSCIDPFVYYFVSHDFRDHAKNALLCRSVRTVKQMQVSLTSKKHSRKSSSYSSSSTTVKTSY
The assay is described as follows: Antagonist activity at PAR2 (unknown origin).

The target of another assay is T6, Protein phosphatase 1D (Homo sapiens, UniProt O15297).
T6 sequence (O15297 whole entry): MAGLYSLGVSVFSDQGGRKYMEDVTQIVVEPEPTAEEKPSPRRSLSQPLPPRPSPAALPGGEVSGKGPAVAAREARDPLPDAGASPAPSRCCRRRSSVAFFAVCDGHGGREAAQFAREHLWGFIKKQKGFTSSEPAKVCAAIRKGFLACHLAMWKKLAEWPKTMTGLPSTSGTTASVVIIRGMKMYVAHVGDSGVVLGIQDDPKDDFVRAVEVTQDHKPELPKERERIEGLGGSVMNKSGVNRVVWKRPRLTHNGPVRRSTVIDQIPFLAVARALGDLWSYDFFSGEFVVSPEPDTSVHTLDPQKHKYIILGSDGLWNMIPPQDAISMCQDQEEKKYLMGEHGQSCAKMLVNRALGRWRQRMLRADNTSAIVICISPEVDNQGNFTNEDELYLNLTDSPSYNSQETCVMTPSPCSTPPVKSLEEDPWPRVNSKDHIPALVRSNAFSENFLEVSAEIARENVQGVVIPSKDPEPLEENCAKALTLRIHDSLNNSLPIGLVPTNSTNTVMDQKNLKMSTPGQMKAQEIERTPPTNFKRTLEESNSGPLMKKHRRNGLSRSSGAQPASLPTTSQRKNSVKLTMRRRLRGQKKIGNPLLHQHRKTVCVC
The experiment in a line: Inhibition of N-terminal FLAG-His8-tagged human Wip1 (2 to 420 residues) expressed in bac-to-bac baculovirus expression system infected Sf9 cells.

Assay [6] deals with T7, Protein-arginine deiminase type-4 (Homo sapiens, UniProt Q9UM07). The experiment in a line: Inhibition of N-terminal GST-tagged PAD4 (unknown origin) expressed in Escherichia coli incubated for 1 hr by spectrophotometric method.
T7 sequence (Q9UM07 whole entry): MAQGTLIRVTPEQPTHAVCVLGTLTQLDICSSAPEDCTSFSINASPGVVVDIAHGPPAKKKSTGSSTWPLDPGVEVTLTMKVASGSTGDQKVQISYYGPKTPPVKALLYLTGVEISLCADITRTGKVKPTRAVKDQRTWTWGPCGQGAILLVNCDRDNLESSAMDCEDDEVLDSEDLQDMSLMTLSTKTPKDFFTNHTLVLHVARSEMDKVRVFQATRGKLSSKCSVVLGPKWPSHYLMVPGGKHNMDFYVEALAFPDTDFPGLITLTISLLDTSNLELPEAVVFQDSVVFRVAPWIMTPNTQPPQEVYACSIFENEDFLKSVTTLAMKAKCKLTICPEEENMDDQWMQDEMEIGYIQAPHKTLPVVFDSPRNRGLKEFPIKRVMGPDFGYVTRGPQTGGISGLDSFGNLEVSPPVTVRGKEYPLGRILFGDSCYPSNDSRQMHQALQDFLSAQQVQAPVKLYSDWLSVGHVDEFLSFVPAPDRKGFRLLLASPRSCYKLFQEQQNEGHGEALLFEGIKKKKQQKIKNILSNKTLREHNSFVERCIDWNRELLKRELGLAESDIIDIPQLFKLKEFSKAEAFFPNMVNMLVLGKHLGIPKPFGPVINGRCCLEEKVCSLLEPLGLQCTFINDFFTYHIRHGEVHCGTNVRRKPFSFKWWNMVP
The target in assay [7] is T7, Protein-arginine deiminase type-4. The experiment in a line: Inhibition of N-terminal GST-tagged PAD4 (unknown origin) expressed in Escherichia coli BL21 (DE3) measured after 1 hr by colorimetric assay.

With `CNC(=O)[C@@H](Cc1ccc([N+](=O)[O-])cc1)NC(=O)c1cc(-c2ccc(CN[C@H](C)c3ccc(C)cc3)o2)ccc1Cl`, half-maximal inhibition in assay [1] (IC50) required 22 nM.

As for `CNC(=O)C[C@@H](NC(=O)[C@@H](Cc1ccccc1)NC(=O)c1c(C)noc1-c1snnc1C)c1ccc(C(F)(F)F)cc1`, the IC50 is 16 nM in assay [2], 5 nM in assay [3] and greater than 100000 nM in assay [4]. The molecule `C[C@@H](c1ccccc1)n1c(-c2cc3c(cc2Br)OCO3)nc2cc(C(=O)Nc3ccccc3)ccc21` came in with an IC50 in assay [5] of 90 nM. `CN(Cc1ccc2nccn2c1)c1ccc(-c2ccc(-c3ccccc3Cl)cc2)o1`: the concentration for half-maximal inhibition (IC50) in assay [2] was 400 nM; in assay [3], 5 nM; in assay [4], 15800 nM. Molecule `COCCNC(=O)[C@H](CC1CCCCC1)NC(=O)c1ccc(CNc2cccc(Cl)c2)s1` came in with an IC50 against Protein phosphatase 1D of 13 nM. Consider `C[C@@H](C1CCCCC1)n1c(-c2cc3c(cc2Br)OCO3)nc2cc(C(=O)Nc3ccc(C#N)cc3)ccc21`, for which, in assay [5], the IC50 came to 23 nM. Consider `Cn1c(-c2cc3cc(C(=O)N4CCCC(N)C4)ccc3n2N)cc2ccccc21` (centres undefined), for which it took 3200 nM to reach half-maximal inhibition in assay [6] (IC50). As to `COc1cc(C(=O)N2CCC[C@@H](N)C2)cc2cc(-c3cc4cccnc4n3C)n(N)c12`, the IC50 in assay [7] and in assay [6] was 200 nM throughout. `COc1cc(Cl)c(C(=O)N[C@@H](CN[C@H]2CC[C@@H](N)CC2)Cc2ccc(C#N)cc2)cc1-c1ccc(CN[C@H](C)c2ccc(C)cc2)o1` displayed an IC50 in assay [1] of 22 nM.
